{
  "source": "ChEMBL document CHEMBL1134504",
  "about": "“Synthesis and cytotoxic activity of 7-oxo-7H-dibenz[f,ij]isoquinoline and 7-oxo-7H-benzo[e]perimidine derivatives” (J Med Chem, 2001)",
  "key": {"P388": {"tested_on": "P388", "test": "Inhibitory activity against P388 murine leukemia cells", "format": "functional, cell-based", "conditions": "Mus musculus"}, "Jurkat [1]": {"tested_on": "Jurkat", "test": "Inhibitory activity against Jurkat human leukemia cells", "format": "functional, cell-based"}, "Jurkat [2]": {"tested_on": "Jurkat", "test": "Ratio of IC50 against Jurkat human leukemia amsacrine-resistant cells (JLA) to Jurkat human leukemia cells (JLC)", "format": "functional"}, "Jurkat [3]": {"tested_on": "Jurkat", "test": "Ratio of IC50 against Jurkat human leukemia doxorubicin-resistant cells (JLD) to Jurkat human leukemia cells (JLC)", "format": "functional"}, "[4]": {"tested_on": "Lewis lung carcinoma cell line", "test": "Inhibitory activity against Lewis lung carcinoma cells", "format": "functional, cell-based", "conditions": "Mus musculus"}},
  "data": [
    {"smiles": "Cc1cc2c3c(cccc3n1)C(=O)c1cccc(C(=O)NCCN(C)C)c1-2", "values": [
      {"measurement": "IC50", "setting": "P388", "value": 100, "unit": "nM"},
      {"measurement": "IC50", "setting": "Jurkat [1]", "value": 424, "unit": "nM"},
      {"measurement": "IC50 ratio", "setting": "Jurkat [2]", "value": 2.5},
      {"measurement": "IC50 ratio", "setting": "Jurkat [3]", "value": 2.5},
      {"measurement": "IC50", "setting": "[4]", "value": 101, "unit": "nM"}
    ]},
    {"smiles": "Cc1cc2c3c(cccc3n1)C(=O)c1c(C(=O)NCCN(C)C)cccc1-2", "values": [
      {"measurement": "IC50", "setting": "P388", "value": 6600, "unit": "nM"},
      {"measurement": "IC50", "setting": "Jurkat [1]", "value": 1420, "unit": "nM"},
      {"measurement": "IC50 ratio", "setting": "Jurkat [2]", "value": 1},
      {"measurement": "IC50 ratio", "setting": "Jurkat [3]", "value": 1.1},
      {"measurement": "IC50", "setting": "[4]", "value": 1790, "unit": "nM"}
    ]},
    {"smiles": "Cc1cc2c3c(ccc(C(=O)NCCN(C)C)c3n1)C(=O)c1ccccc1-2", "values": [
      {"measurement": "IC50", "setting": "P388", "value": 890, "unit": "nM"},
      {"measurement": "IC50", "setting": "Jurkat [1]", "value": 717, "unit": "nM"},
      {"measurement": "IC50 ratio", "setting": "Jurkat [2]", "value": 1.2},
      {"measurement": "IC50 ratio", "setting": "Jurkat [3]", "value": 1},
      {"measurement": "IC50", "setting": "[4]", "value": 717, "unit": "nM"}
    ]},
    {"smiles": "CN(C)CC/N=C/c1cc2c3c(cccc3n1)C(=O)c1ccccc1-2", "values": [
      {"measurement": "IC50", "setting": "P388", "value": 6200, "unit": "nM"},
      {"measurement": "IC50", "setting": "Jurkat [1]", "value": 3360, "unit": "nM"},
      {"measurement": "IC50 ratio", "setting": "Jurkat [2]", "value": 0.6},
      {"measurement": "IC50 ratio", "setting": "Jurkat [3]", "value": 0.8},
      {"measurement": "IC50", "setting": "[4]", "value": 2480, "unit": "nM"}
    ]},
    {"smiles": "CN(C)CCNC(=O)c1nc2c3c(cccc3n1)C(=O)c1ccccc1-2", "values": [
      {"measurement": "IC50", "setting": "P388", "value": 1500, "unit": "nM"},
      {"measurement": "IC50", "setting": "Jurkat [1]", "value": 1240, "unit": "nM"},
      {"measurement": "IC50 ratio", "setting": "Jurkat [2]", "value": 1},
      {"measurement": "IC50 ratio", "setting": "Jurkat [3]", "value": 0.9},
      {"measurement": "IC50", "setting": "[4]", "value": 1030, "unit": "nM"}
    ]},
    {"smiles": "CN(CCNC(=O)c1cc2c3c(cccc3n1)C(=O)c1ccccc1-2)CCN(C)CCNC(=O)c1cc2c3c(cccc3n1)C(=O)c1ccccc1-2", "values": [
      {"measurement": "IC50", "setting": "P388", "value": 790, "unit": "nM"},
      {"measurement": "IC50", "setting": "Jurkat [1]", "value": 566, "unit": "nM"},
      {"measurement": "IC50 ratio", "setting": "Jurkat [2]", "value": 0.2},
      {"measurement": "IC50 ratio", "setting": "Jurkat [3]", "value": 0.8},
      {"measurement": "IC50", "setting": "[4]", "value": 472, "unit": "nM"}
    ]},
    {"smiles": "CN(C)CCNC(=O)c1cc2c3c(ccc(Cl)c3n1)C(=O)c1c(C(=O)NCCN(C)C)cccc1-2", "values": [
      {"measurement": "IC50", "setting": "P388", "value": 5800, "unit": "nM"},
      {"measurement": "IC50", "setting": "Jurkat [1]", "value": 800, "unit": "nM"},
      {"measurement": "IC50 ratio", "setting": "Jurkat [2]", "value": 0.9},
      {"measurement": "IC50 ratio", "setting": "Jurkat [3]", "value": 1.6},
      {"measurement": "IC50", "setting": "[4]", "value": 200, "unit": "nM"}
    ]},
    {"smiles": "O=C1c2ccccc2-c2cc(/C=N/NC3=NCCN3)nc3cccc1c23", "values": [
      {"measurement": "IC50", "setting": "P388", "value": 340, "unit": "nM"},
      {"measurement": "IC50", "setting": "Jurkat [1]", "value": 422, "unit": "nM"},
      {"measurement": "IC50 ratio", "setting": "Jurkat [2]", "value": 1},
      {"measurement": "IC50 ratio", "setting": "Jurkat [3]", "value": 1.1},
      {"measurement": "IC50", "setting": "[4]", "value": 830, "unit": "nM"}
    ]},
    {"smiles": "CN(C)CC(CN(C)C)c1cc2c3c(cccc3n1)C(=O)c1ccccc1-2", "values": [
      {"measurement": "IC50", "setting": "P388", "value": 110, "unit": "nM"},
      {"measurement": "IC50", "setting": "Jurkat [1]", "value": 550, "unit": "nM"},
      {"measurement": "IC50 ratio", "setting": "Jurkat [2]", "value": 0.8},
      {"measurement": "IC50 ratio", "setting": "Jurkat [3]", "value": 1},
      {"measurement": "IC50", "setting": "[4]", "value": 98, "unit": "nM"}
    ]},
    {"smiles": "CN(C)CCNC(=O)c1cc2c3c(cccc3n1)C(=O)c1c(Cl)cccc1-2", "values": [
      {"measurement": "IC50", "setting": "P388", "value": 800, "unit": "nM"},
      {"measurement": "IC50", "setting": "Jurkat [1]", "value": 758, "unit": "nM"},
      {"measurement": "IC50 ratio", "setting": "Jurkat [2]", "value": 1},
      {"measurement": "IC50 ratio", "setting": "Jurkat [3]", "value": 0.9},
      {"measurement": "IC50", "setting": "[4]", "value": 483, "unit": "nM"}
    ]},
    {"smiles": "CN(C)CCc1cc2c3c(cccc3n1)C(=O)c1ccccc1-2", "values": [
      {"measurement": "IC50", "setting": "P388", "value": 2300, "unit": "nM"},
      {"measurement": "IC50", "setting": "Jurkat [1]", "value": 1010, "unit": "nM"},
      {"measurement": "IC50 ratio", "setting": "Jurkat [2]", "value": 0.8},
      {"measurement": "IC50 ratio", "setting": "Jurkat [3]", "value": 0.8},
      {"measurement": "IC50", "setting": "[4]", "value": 887, "unit": "nM"}
    ]},
    {"smiles": "CN(C)CCNc1nc2c3c(cccc3n1)C(=O)c1ccccc1-2", "values": [
      {"measurement": "IC50", "setting": "P388", "value": 1000, "unit": "nM"},
      {"measurement": "IC50", "setting": "Jurkat [1]", "value": 860, "unit": "nM"},
      {"measurement": "IC50 ratio", "setting": "Jurkat [2]", "value": 0.7},
      {"measurement": "IC50 ratio", "setting": "Jurkat [3]", "value": 0.7},
      {"measurement": "IC50", "setting": "[4]", "value": 525, "unit": "nM"}
    ]},
    {"smiles": "CN(C)CCNc1cc2c3c(cccc3n1)C(=O)c1ccccc1-2", "values": [
      {"measurement": "IC50", "setting": "P388", "value": 1300, "unit": "nM"},
      {"measurement": "IC50", "setting": "Jurkat [1]", "value": 1160, "unit": "nM"},
      {"measurement": "IC50 ratio", "setting": "Jurkat [2]", "value": 0.8},
      {"measurement": "IC50 ratio", "setting": "Jurkat [3]", "value": 0.9},
      {"measurement": "IC50", "setting": "[4]", "value": 1080, "unit": "nM"}
    ]},
    {"smiles": "CN(C)CCNC(=O)c1cc2c3c(cccc3n1)C(=O)c1ccccc1-2", "values": [
      {"measurement": "IC50", "setting": "P388", "value": 600, "unit": "nM"},
      {"measurement": "IC50", "setting": "Jurkat [1]", "value": 165, "unit": "nM"},
      {"measurement": "IC50 ratio", "setting": "Jurkat [2]", "value": 0.2},
      {"measurement": "IC50 ratio", "setting": "Jurkat [3]", "value": 0.8},
      {"measurement": "IC50", "setting": "[4]", "value": 35, "unit": "nM"}
    ]},
    {"smiles": "CN(C)CCNC(=O)c1cc2c3c(cccc3n1)C(=O)c1cccc(Cl)c1-2", "values": [
      {"measurement": "IC50", "setting": "P388", "value": 130, "unit": "nM"},
      {"measurement": "IC50", "setting": "Jurkat [1]", "value": 238, "unit": "nM"},
      {"measurement": "IC50 ratio", "setting": "Jurkat [2]", "value": 0.7},
      {"measurement": "IC50 ratio", "setting": "Jurkat [3]", "value": 0.8},
      {"measurement": "IC50", "setting": "[4]", "value": 128, "unit": "nM"}
    ]},
    {"smiles": "COc1cc(NS(C)(=O)=O)ccc1Nc1c2ccccc2nc2ccccc12", "note": "[AMSACRINE]", "values": [
      {"measurement": "IC50 ratio", "setting": "Jurkat [2]", "value": 85},
      {"measurement": "IC50 ratio", "setting": "Jurkat [3]", "value": 74}
    ]},
    {"smiles": "CC[C@@]1(O)C(=O)OCc2c1cc1n(c2=O)Cc2cc3ccccc3nc2-1", "note": "[CAMPTOTHECIN]", "values": [
      {"measurement": "IC50", "setting": "P388", "value": 13, "unit": "nM"},
      {"measurement": "IC50", "setting": "Jurkat [1]", "value": 5.6, "unit": "nM"},
      {"measurement": "IC50 ratio", "setting": "Jurkat [2]", "value": 2},
      {"measurement": "IC50 ratio", "setting": "Jurkat [3]", "value": 1.4},
      {"measurement": "IC50", "setting": "[4]", "value": 33, "unit": "nM"}
    ]}
  ]
}
